Data set [1] in a line: Oral pharmacokinetics / bioavailability. It is filed as in vivo, Rat. The note with it: rat, in vivo, Oral gavage, 3 mg/kg nominal dose, vehicle 0.2%MC/1%SLS; for AUC: read-out: Rat PO AUC; for Cmax: read-out: Rat PO Cmax. From the text: The bioavailability in monkey (greater than 100%) may be explained by the tenfold difference between the IV and oral doses. Compound 1 was rapidly absorbed in all species, with maximum systemic concentration observed within approximately one to three hours of dosing.

Data set [2] is described as follows: Intravenous bolus pharmacokinetics. It is filed as in vivo, Rat. The note with it: rat, plasma, Intravenous bolus, 0.5 mg/kg nominal dose; for AUC: iv, 0.5 mg/kg, read-out: Rat IV AUC; for clearance: read-out: Rat IV CL. From the text: Following intravenous administration of a single bolus dose, Compound 1 had low systemic clearance and a long half-life in all species tested. […] The volume of distribution was greater than the total body water, indicating distribution of Compound 1 to tissues.

Data set [3] relates to collagen-induced arthritis (CIA). Put plainly: therapeutic mouse collagen-induced arthritis (CIA) model. It is filed as in vivo. Also noted: Histopathology Summed Score, Knees / Therapeutic Paw Score AUC / Histopathology Summed Score, Six Joints / Histopathology Summed Score, Paws: scale not given here. The following applies: Fostamatinib 30 mg/kg BID. The protocol: Compound 1 was tested in the therapeutic mouse collagen-induced arthritis (CIA) model at 2.5 mg/kg BID (5 mg/kg/day), 5 mg/kg BID (10 mg/kg/day) or 10 mg/kg BID (20 mg/kg/day). Fostamatinib, a Syk small molecule inhibitor used as a reference standard, was dosed orally at 30 mg/kg BID (60 mg/kg/day). Compounds were dosed for 10 days in a 12/12-hour BID dosing regimen until the end of the study. Compound 1 was formulated in 0.2% MC, 1% SLS. Dosing volume was 10 mL/kg. Terminal plasma samples were collected at 2, 4 and 12 hours post last dose. All four paws and both knees were collected and processed for histopathology.

For data set [4], the system named is CYP1A2. The data set is described as follows: CYP1A2 Induction in Human Hepatocytes. It is filed as in vitro ADME. The note with it: 50 μM Omeprazole. The protocol:
CYP activity was determined by monitoring metabolite formation of specific CYP probe substrates (phenacetin for CYP1A2 and testosterone for CYP3A4) using LC-MS/MS. CYP messenger ribonucleic acid (mRNA) was analyzed by RT-PCR to confirm CYP induction potential.

We go through six compounds from patent US10301304B2, “Selective inhibitor of phosphatidylinositol 3-kinase-gamma” (VERTEX PHARMACEUTICALS INCORPORATED, priority 2013, dated 2019).

A word on the AUC: it is the area under the concentration-time curve, a measure of exposure. One may read the Cmax as the peak of the concentration-time curve.

Each structure is given as a SMILES string.

For `CCOc1cncc(-c2cc(C)c3c(n2)C(C)(C)N(c2cnn(CC(F)F)c2)C3=O)c1` [B, reference compound], in data set [1], the AUC worked out at 600 ng·h/mL and the Cmax turned out to be 120 ng/mL. In data set [2], the AUC turned out to be 330 ng·h/mL and the clearance amounted to 22 mL/min/kg.

Turning to `Cc1cc(-c2cncc(OCC(F)F)c2)nc2c1C(=O)N(c1cnn(CC(F)F)c1)C2(C)C` [C, reference compound], in data set [1], the AUC was 3000 ng·h/mL and the Cmax is 200 ng/mL. Also, in data set [2], the AUC came to 590 ng·h/mL and the clearance was 11 mL/min/kg.

Consider `COc1cncc(-c2cc(C)c3c(n2)C(C)(C)N(c2cnn(CC(F)F)c2)C3=O)c1` [Compound A, reference compound], for which, in data set [1], the AUC is 300 ng·h/mL and the Cmax came to 60 ng/mL. In data set [2], the AUC worked out at 220 ng·h/mL and the clearance was found to be 22 mL/min/kg.

Regarding `Cc1cc(-c2cncc(OCC(F)(F)F)c2)nc2c1C(=O)N(c1cnn(CC(F)F)c1)C2(C)C` [D, reference compound], in data set [1], the AUC came to 9000 ng·h/mL and the Cmax worked out at 500 ng/mL. Also, in data set [2], the AUC amounted to 1200 ng·h/mL and the clearance was 7 mL/min/kg.

Turning to `COc1cc(Nc2ncc(F)c(Nc3ccc4c(n3)N(COP(=O)(O)O)C(=O)C(C)(C)O4)n2)cc(OC)c1OC` [Fostamatinib, reference compound], in data set [3], the “clinical arthritis scores, therapeutic paws (FIG. 2), significantly reduced” value is “not”; the “reduction of arthritis scores AUC, prophylactic paws only” value worked out at 32%; the “reduction of clinical arthritis scores AUC vs vehicle, all paws” value came to 25%. Moreover, in data set [3] (10 days), the “All Paw Score AUC” value is on record as “*23.61”; the “Histopathology Summed Score, Knees” value is listed as 8.90; the “Histopathology Summed Score, Paws” value turned out to be 10.25; the “Histopathology Summed Score, Six Joints” value was determined as 9.80. Moreover, in data set [3] (10 days), the “Prophylactic Paw Score AUC” value is listed as “*48.30” and the “Therapeutic Paw Score AUC” value is 46.15. The “Arthritis scores measured daily, all paws (FIG. 1)” value in data set [3] (*d2-11, vs vehicle) was “significantly reduced toward normal”. Also, the “clinical arthritis scores, prophylactic paws (FIG. 3)” value in data set [3] (*d5-9) was “significantly reduced”.

Turning to `COc1ccc2[nH]c([S+]([O-])Cc3ncc(C)c(OC)c3C)nc2c1` (stereo not drawn) [Omeprazole, reference compound], the “CYP1A2 mRNA message” value in data set [4] (lot 8123) was found to be 118.0 fold change; in data set [4] (lot LMP) it was 71.5 fold change; in data set [4] (lot YOW), 83.6 fold change. Further, the “Phenacetin O-Dealkylation” value in data set [4] (lot 8123) turned out to be 25.7 fold change; in data set [4] (lot LMP) it was 36.3 fold change; in data set [4] (lot YOW), 17.9 fold change.
